Experimental data reported in paper PMC9454848, “BMS-986158, a Small Molecule Inhibitor of the Bromodomain and Extraterminal Domain Proteins, in Patients with Selected Advanced Solid Tumors: Results from a Phase 1/2a Trial” (Cancers, 2022).
“And” between values parts separate entries of the source, which are not always exact repeats. Equal entries are not always repeated. “Also recorded” adds a separate entry of the source. Marks after values point to notes of the source that are not given here.

Key:
BET-regulated genes = experiment: Transcriptional changes in matched pre- and on-treatment samples; assay type: in vivo, human; conditions: of >18,000 genes measured; Benjamini–Hochberg–adjusted p < 0.05; 41 patients
Protocol: (§1) Summary changes from baseline in the expression of BET-regulated genes were assessed in tumor tissues and blood collected at baseline and multiple on-treatment time points after BMS-986158 administration following the 3 dosing schedules. The study also assessed summary percent changes from baseline in expression of BET-regulated genes in peripheral blood and tumors (such as HEXIM1 and C-MYC). Tissue and peripheral blood samples (at baseline and on treatment) were collected for genomic, transcriptomic, and epigenetic analyses (by DNA or mRNA) to assess pharmacodynamic changes in BET-regulated genes. These samples were analyzed using whole-exome sequencing, real-time quantitative polymerase chain reaction, and RNA-sequencing methods.
(§2) All treated patients with available biomarker measurements at baseline and ≥1 time point were included in the biomarker analyses. Blood and tumor tissue samples were collected at baseline, during treatment, and at end of treatment for biomarker analysis. Markers of selected BET-regulated genes (e.g., HEXIM1) were analyzed with summary statistics for percent changes in expression from available matched pre- and on-treatment samples over time relative to baseline. Statistically significant changes in gene expression were determined using the Benjamini–Hochberg procedure to calculate an adjusted p value with an α level of 0.05.

advanced solid tumors = experiment: Preliminary antitumor activity (RECIST 1.1 best overall response, ORR, PFS, OS); assay type: in vivo, human
Protocol: Best overall response was defined as a complete response (CR), partial response (PR), stable disease (SD), or progressive disease per RECIST 1.1 (solid tumors). […] Patients who had SD or better as their best overall response were classified as having achieved clinical benefit. These criteria must have been met at 1 time point and ≥1 subsequent time point(s) (the first of which was within 28 days of the initial time point). PFS was determined as the time from the first dose of study medication to the date of the first objective documentation of tumor progression or death due to any cause. All treated patients who received ≥1 dose of BMS-986158 were evaluated in the safety population. […] All treated patients with available and sufficient serum or plasma samples for the corresponding analytes were included in the PK analyses. […] ECG parameters were evaluated in a categorical analysis, and linear mixed-effects regression modeling was used to describe the quantitative relationship between ΔQTcF and time-matched serum concentrations of BMS-986158 or its metabolite at a single dose. Descriptive summary statistics, including means and 95% CIs, were calculated using the Clopper-Pearson method for ORR and Kaplan–Meier method for PFS and OS. During dose escalation, an mTPI design targeted a 27% DLT rate to guide escalation decisions and the MTD selection. In the dose-escalation segment, the target enrollment was up to 30 patients per schedule and 3–13 DLT-evaluable patients at a dose level, with an aim to determine the MTD. The totality of the data, including PK, pharmacodynamics, and patient overall safety, including at lower dose levels, was also used to select the RP2D.

CCR2 mRNA = experiment: Change from baseline in gene expression, CCR2; assay type: in vivo, human; conditions: patients; single dose up to 4.5 mg and schedule A
Protocol: as §1, §2

[1] = tested on: patients with advanced solid tumors; experiment: ECG ΔQTcF exposure-response at single dose; assay type: in vivo
Protocol: Triplicate ECG measures were used to assess changes from baseline in the QT interval adjusted for heart rate using Fridericia’s formula (ΔQTcF) following a single dose of BMS-986158 at C1D1. ΔQTcF was evaluated in the context of exposure response for BMS-986158 and its metabolite of interest.
All treated patients who received ≥1 dose of BMS-986158 were evaluated in the safety population. […] All treated patients with available and sufficient serum or plasma samples for the corresponding analytes were included in the PK analyses. […] ECG parameters were evaluated in a categorical analysis, and linear mixed-effects regression modeling was used to describe the quantitative relationship between ΔQTcF and time-matched serum concentrations of BMS-986158 or its metabolite at a single dose.

[2] = Schedule A (5 days on, 2 days off), n = 46
[3] = Schedule B (14 days on, 7 days off), n = 8
[4] = Schedule C (7 days on, 14 days off), n = 29

Structure (SMILES): Cc1nnn(C)c1-c1cnc2c3ccc(C(C)(C)O)cc3n([C@H](c3ccccc3)C3CCOCC3)c2c1 [BMS-986158]
- Genes with significant changes in expression (BET-regulated genes): 4500
- Patients with clinical benefit (advanced solid tumors; 4.5-mg dose on schedule A (9/14)): 64%
- OS rate (advanced solid tumors; 6 months, Schedule A): 52.6%
- OS rate (advanced solid tumors; 6 months, Schedule C): 48.4%
- OS rate, n (95% CI) (advanced solid tumors; 6 months, Schedule A (5 days on, 2 days off), n = 46): 52.6%
- OS rate, n (95% CI) (advanced solid tumors; 6 months, Schedule C (7 days on, 14 days off), n = 29): 48.4%
- OS rate (advanced solid tumors; 12 months, Schedule A): 34.3%
- OS rate (advanced solid tumors; 12 months, Schedule C): 30.8%
- OS rate, n (95% CI) (advanced solid tumors; 12 months, Schedule A (5 days on, 2 days off), n = 46): 34.3%
- OS rate, n (95% CI) (advanced solid tumors; 12 months, Schedule C (7 days on, 14 days off), n = 29): 30.8%
- PFS rate, range depending on treatment schedule (advanced solid tumors; 24 weeks): 13.5–42.9%
- PFS rate, n (95% CI) (advanced solid tumors; 24 weeks, Schedule A (5 days on, 2 days off), n = 46): 18.1%
- PFS rate, n (95% CI) (advanced solid tumors; 24 weeks, Schedule B (14 days on, 7 days off), n = 8): 42.9%
- PFS rate, n (95% CI) (advanced solid tumors; 24 weeks, Schedule C (7 days on, 14 days off), n = 29): 13.5%
- PFS rate, range depending on treatment schedule (advanced solid tumors; 48 weeks): 6.8–14.3%
- PFS rate, n (95% CI) (advanced solid tumors; 48 weeks, Schedule A (5 days on, 2 days off), n = 46): 10.3%
- PFS rate, n (95% CI) (advanced solid tumors; 48 weeks, Schedule B (14 days on, 7 days off), n = 8): 14.3%
- PFS rate, n (95% CI) (advanced solid tumors; 48 weeks, Schedule C (7 days on, 14 days off), n = 29): 6.8%
- Patients with clinical benefit (advanced solid tumors; NUT carcinoma (4/7)): 57.1%
- Best overall response unable to be determined (advanced solid tumors; Schedule A): 17.4%
- Stable disease rate (advanced solid tumors; Schedule A): 26.1%
- Best overall response by investigator: complete response (advanced solid tumors; [2]): 0 n (%)
- Best overall response by investigator: partial response (advanced solid tumors; [2]): 2 (4.3) ^a n (%)
- Best overall response by investigator: progressive disease (advanced solid tumors; [2]): 24 (52.2) n (%)
- Best overall response by investigator: stable disease (advanced solid tumors; [2]): 12 (26.1) n (%)
- Best overall response by investigator: unable to determine (advanced solid tumors; [2]): 8 (17.4) ^b n (%)
- Median OS (95% CI) (advanced solid tumors; [2]): 7.52 (4.17–11.99) months
- Median PFS (95% CI) (advanced solid tumors; [2]): 8.29 (7.14–9.71) weeks
- ORR (95% CI) (advanced solid tumors; [2]): 2%
- Patients with a partial response (advanced solid tumors; Schedule A, 4.5-mg starting dose (ovarian cancer, NUT carcinoma)): 2 patients
- Patients achieving clinical benefit (advanced solid tumors; Schedule A, all doses): 30% and 30.4%
- Best overall response unable to be determined (advanced solid tumors; Schedule B): 12.5%
- Stable disease rate (advanced solid tumors; Schedule B): 37.5%
- Best overall response by investigator: complete response (advanced solid tumors; [3]): 0 n (%)
- Best overall response by investigator: partial response (advanced solid tumors; [3]): 0 n (%)
- Best overall response by investigator: progressive disease (advanced solid tumors; [3]): 4 (50.0) n (%)
- Best overall response by investigator: stable disease (advanced solid tumors; [3]): 3 (37.5) n (%)
- Best overall response by investigator: unable to determine (advanced solid tumors; [3]): 1 (12.5) ^c n (%)
- Median OS (95% CI) (advanced solid tumors; [3]): 9.23 (2.79–11.83) months
- Median PFS (95% CI) (advanced solid tumors; [3]): 8.43 (5.57–40.14) weeks
- ORR (95% CI) (advanced solid tumors; [3]): 0 (0.0–36.9) %
- Best overall response unable to be determined (advanced solid tumors; Schedule C): 17.2%
- Stable disease rate (advanced solid tumors; Schedule C): 31.0%
- Best overall response by investigator: complete response (advanced solid tumors; [4]): 0 n (%)
- Best overall response by investigator: partial response (advanced solid tumors; [4]): 0 n (%)
- Best overall response by investigator: progressive disease (advanced solid tumors; [4]): 15 (51.7) n (%)
- Best overall response by investigator: stable disease (advanced solid tumors; [4]): 9 (31.0) n (%)
- Best overall response by investigator: unable to determine (advanced solid tumors; [4]): 5 (17.2) ^d n (%)
- Median OS (95% CI) (advanced solid tumors; [4]): 5.32 (3.52–11.83) months
- Median PFS (95% CI) (advanced solid tumors; [4]): 9.00 (7.86–13.29) weeks
- ORR (95% CI) (advanced solid tumors; [4]): 0 (0.0–11.9) %
- Patients with SD or better (advanced solid tumors; across treatment schedules and doses (n = 26)): 31.3%
- Patients with clinical benefit (advanced solid tumors; adenoid cystic carcinoma (4/4)): 100%
- Complete response (advanced solid tumors; all schedules): No patients experienced a CR
- Tumor marker CA 125 level after treatment initiation (advanced solid tumors; one patient, ovarian cancer, 4.5 mg schedule A, 3032 U/mL prior to C1D1): decreased and remained stable; also recorded: decreased and stabilized
- Duration of partial response on study treatment (advanced solid tumors; one patient, serous papillary ovarian cancer, 4.5 mg schedule A): 155 days
- Reduction in tumor burden (advanced solid tumors; one patient, serous papillary ovarian cancer, 4.5 mg schedule A, PR at day 170): 35%
- PFS, range depending on treatment schedule (advanced solid tumors; schedules A, B, C): 8.29–9.00 weeks
- Progressive disease as best response, range across treatment schedules (advanced solid tumors; schedules A, B, C): 50.0–52.2%
- Patients with clinical benefit (advanced solid tumors; uveal melanoma (3/5)): 60%
- CCR2 mRNA expression change from baseline (CCR2 mRNA): transcriptional suppression; also recorded: dose-dependent expression changes
- Effect on ΔQTcF ([1]; single dose of BMS-986158): neither BMS-986158 nor its metabolite had a statistically significant effect; also recorded: not found to cause significant QTc prolongation
- Predicted increase in ΔQTcF at highest observed Cmax ([1]; single dose, linear mixed-effects model): < 5 ms
